# Patent publication US20160272969A1, “COMPOSITIONS AND METHODS FOR MODULATING AUTOPHAGIC CELL DEATH” (priority 2013, published 2016)
# Where a SMILES comes first, the peptide text is derived from it. [ ]: non-standard residue; d: D form. The star is where a group is joined. Sta = CC(C)C[C@H](N)[C@@H](O)CC(=O)O; Isovaleryl = CC(C)CC(=O)*
# How the values were obtained:
# [1] = system: MCF-7 cells; test: Cell death by trypan blue staining, MCF-7 cells; format: cell-based, human; settings: for TPCK or tamoxifen-induced cell death on addition of autophagy inhibitor: 50 nM bafilomycin A1, 5 mM 3-Methyladenine or combination of 10 m/ml pepstatin with 10 m/ml E64-d
# Procedure: (§1) The human breast cancer MCF-7 cell line was cultured in DMEM (Invitrogen, 41965) supplemented with 10% FBS (Beit Haemek, 04-121-1A), 300 mg/l L-glutamine (Beit Haemek, 03-020-1B), 100 U/ml penicillin, 100 μg/ml streptomycin and 12.5 U/ml nystatin (Beit Haemek, 03-032-1B) and 100 U/ml recombinant human insulin (Beit Haemek, 01-818-1H), at 37° C. in 5% CO2.
# (§2) Cells were plated in 24-wells plate or 96-well plates at a concentration of 5·10^4 cells/ml. A day later the cells were treated with different concentrations of tamoxifen or TPCK as indicated below.
# [2] = system: MCF-7 cells; test: Labeling of autophagic vacuoles with monodansylcadaverine (MDC), MCF-7 cells; format: cell-based, human; settings: for MDC uptake in cells treated with TPCK: MCF-7 cells treated with TPCK, 3 MA 5 mM or bafilomycin A1 50 nM, 24 hours
# Procedure: as §1, §2
# (§3) Following treatment, the cells were incubated with 0.05 mM MDC in PBS at 37° C. for 10 minutes (Biederbick et al., Eur J Cell Biol. 1995 January; 66(1):3-14). Intracellular MDC was measured by fluorescence photometry (excitation wavelength 380 nm, emission filter 525 nm) in a TECAN SPECTRA Fluor Plus microplate reader. The MDC fluorescence intensity was correlated to cell density as measured by XTT reduction assay performed in parallel treated samples. The results are expressed as fluorescence/cell.
# (§4) For visualization of MDC-labeled vacuoles, cells were grown on coverslips, incubated with 0.05 mM MDC at 37° C. for 10 minutes. After incubation, cells were washed four times with PBS and immediately analyzed by fluorescence microscopy.
# [3] = system: MCF-7 cells; test: Western blot of LC3-II levels, MCF-7 cells; format: cell-based, human; settings: for TPCK-induced accumulation of LC3-II: co-incubation with E64d and pepstatin A together
# [4] = system: HT-29 cells; test: Western blot of LC3-II levels, HT-29 cells; format: cell-based, human; settings: for TPCK-induced accumulation of LC3-II: co-incubation with E64d and pepstatin A together
# [5] = system: HT-29 cells; test: Western blot of intracellular AAT level, HT-29 cells; format: cell-based, human; settings: HT-29 cell lysates; TPCK 50 μM, tamoxifen 10 μM; 1-3 hr treatment
# Procedure: (§5) Normal or treated 10^7 cells were collected, washed twice with ice-cold PBS and resuspended in 0.5 ml ice-cold lysing buffer (50 mM Tris-HCl pH 7.5, 0.1% NP-40, 1 mM DTT, 0.25M sucrose, 2 mM MgCl2). The cells were broken by politron (4 cycles of 7 sec) and the cell debris pelleted by centrifugation in an ultracentrifuge at 120,000×g for 30 min, at 4° C. The supernatant was used immediately or stored at −70° C. Protein content of each sample was determined with BioRad reagent according to Bradford's method using bovine serum albumin (BSA) as standard. Equal amounts of protein samples (40 μg/lane) were subjected to 10% SDS-PAGE before being transferred to polyvinylidene difluoride (PVDF) membranes. The samples were then exposed to the following primary antibodies: goat anti-AAT and goat anti-actin (Santa Cruz Biotechnology, Santa Cruz, Calif.) polyclonal antibody. The secondary antibody was an HRP-conjugated anti-goat IgG (Jackson ImmunoResearch, USA). The membranes were blocked with 5% skin milk/Tris-buffered saline containing 0.1% Tween-20 (TBST) at room temperature for 1 h, after which the samples were incubated overnight at 4° C. with each of the above primary antibodies. The membranes were then washed three times with TBST, followed by 1 h incubation at room temperature with the secondary antibody. […]
# [6] = molecular target: alpha-1-antitrypsin (AAT) (Homo sapiens, UniProt P01009); test: Interaction assay between AAT and TRFCK (SDS-PAGE fluorescence, Western blot); format: binding
# Sequence of alpha-1-antitrypsin (AAT) (Homo sapiens, UniProt P01009) (P01009 25-418): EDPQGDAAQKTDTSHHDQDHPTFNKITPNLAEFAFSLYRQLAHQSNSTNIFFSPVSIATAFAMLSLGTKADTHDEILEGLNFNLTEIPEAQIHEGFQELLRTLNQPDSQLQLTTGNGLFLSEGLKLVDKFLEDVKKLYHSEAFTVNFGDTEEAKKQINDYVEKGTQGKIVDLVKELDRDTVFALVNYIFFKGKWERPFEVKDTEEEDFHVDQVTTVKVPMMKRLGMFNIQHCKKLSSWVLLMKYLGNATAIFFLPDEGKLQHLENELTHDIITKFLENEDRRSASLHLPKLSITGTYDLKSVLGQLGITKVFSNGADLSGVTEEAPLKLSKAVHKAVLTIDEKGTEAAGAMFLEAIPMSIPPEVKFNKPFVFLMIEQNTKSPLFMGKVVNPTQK
# Procedure: 2 μg/μl AAT was incubated in vitro with 50 μM TRFCK in 37° c. for 30 min. After the incubation time the sample was subjected to 10% SDS-PAGE before being transferred to polyvinylidene difluoride (PVDF) membranes. At the end of the transfer the membrane was analyzed under UV lamp to track TRFCK fluorescence. The sample was then exposed to primary antibody anti-AAT. The secondary antibody was an HRP-conjugated anti-goat IgG (Jackson ImmunoResearch, USA) The membrane was then visualized using an ECL+plus Western Blotting Detection System.
# AAT was incubated in vitro with 50 μM TRFCK (a fluorescence analog of TPCK, N-tosyl-L-phenylalanine chloromethyl ketone) in 37° C. for 30 min. Following incubation, the sample was applied to SDS-PAGE electrophoresis and transferred to PVDF membrane. Thereafter, the membrane was analyzed under UV lamp to track TRFCK fluorescence (FIG. 2, track 1). In addition, Western blot analysis was performed using the same membrane with an antibody against AAT (FIG. 2, track 2).
# [7] = system: MCF-7 cells; test: Western blot of intracellular AAT level, MCF-7 cells; format: cell-based, human; settings: MCF-7 cell lysates; TPCK 50 μM, tamoxifen 10 μM; 1-3 hr treatment
# Procedure: as §5
# [8] = system: trypsin; test: Trypsin activity assay (BAEE cleavage); format: biochemical; settings: substrate BAEE, absorbance at 253 nm
# Procedure: (§6) Trypsin activity was determined according to Bergmeyer et. al. (Bergmeyer, H. U., Gawehn, K. and Grassl, M. (1974) in Methods of Enzymatic Analysis (Bergmeyer, H. U. ed.) Volume 1, 2nd ed., 516-517, Academic Press, New York, N.Y.). All assays were set up at a total volume of 1 ml by adding 65 μl trypsin at final amount of 1.625 μg, 0.23 mM Na-benzoyl-L-arginine ethyl ester (BAEE) as substrate in 63 mM sodium phosphate, in the presence or absence of 100 μM or 125 μM AAT with or without different concentration of TPCK. Trypsin activity was measured by the cleavage of the substrate BAEE by measuring absorbance at 253 nm.
# [9] = molecular target: AAT (Homo sapiens, UniProt P01009); test: AAT inhibition of trypsin activity (BAEE cleavage); format: biochemical; settings: TPCK added to AAT and trypsin; P<0.001 compared with control
# Sequence of AAT (P01009 25-418): as above
# Procedure: as §6
# [10] = system: GFP-LC3 transfected MCF-7 cells; test: GFP-LC3 imaging of transfected MCF-7 cells; format: cell-based, human; settings: TPCK 50 μM, 24 hours
# [11] = system: HT-29 cells; test: Labeling of autophagic vacuoles with monodansylcadaverine (MDC), HT-29 cells; format: cell-based, human; settings: HT-29 cells treated with TPCK for 24 hours
# Procedure: HT-29 colorectal adenocarcinoma cells were cultured in RPMI 1640 (Invitrogene, 21875) supplemented with 10% FBS, 300 mg/l L-glutamine, 100 U/ml penicillin, 100 μg/ml streptomycin and 12.5 U/ml nystatin at 37° C. in 5% CO2.
# as §2, §3, §4
# [12] = system: alpha-1-antitrypsin (AAT)
molecule,measurement,setting,value
Cn1cnc(N)c2ncnc1-2 [3-Methyladenine],TPCK or tamoxifen-induced cell death on addition of autophagy inhibitor,[1],reduced TPCK or tamoxifen-induced cell death
same,MDC uptake in cells treated with TPCK,[2],suppressed MDC uptake
CCOC(=O)[C@H]1O[C@@H]1C(=O)N[C@@H](CC(C)C)C(=O)NCCC(C)C [E64d],TPCK or tamoxifen-induced cell death on addition of autophagy inhibitor,[1],reduced TPCK or tamoxifen-induced cell death
same,TPCK-induced accumulation of LC3-II,[3],enhanced TPCK-induced accumulation of LC3-II
same,TPCK-induced accumulation of LC3-II,[4],enhanced TPCK-induced accumulation of LC3-II
CO/C1=C\C(C)=C\[C@@H](C)[C@@H](O)[C@@H](C)C/C(C)=C/C=C/[C@H](OC)[C@@H]([C@@H](C)[C@@H](O)[C@H](C)[C@@]2(O)C[C@@H](O)[C@H](C)[C@@H](C(C)C)O2)OC1=O [bafilomycin A1],TPCK or tamoxifen-induced cell death on addition of autophagy inhibitor,[1],reduced TPCK or tamoxifen-induced cell death
same,MDC uptake in cells treated with TPCK,[2],suppressed MDC uptake
CC(C)CC(=O)N[C@H](C(=O)N[C@H](C(=O)N[C@@H](CC(C)C)[C@@H](O)CC(=O)N[C@@H](C)C(=O)N[C@@H](CC(C)C)[C@@H](O)CC(=O)O)C(C)C)C(C)C [pepstatin A] (Isovaleryl-VV[Sta]A[Sta]-OH),TPCK or tamoxifen-induced cell death on addition of autophagy inhibitor,[1],reduced TPCK or tamoxifen-induced cell death
same,TPCK-induced accumulation of LC3-II,[3],enhanced TPCK-induced accumulation of LC3-II
same,TPCK-induced accumulation of LC3-II,[4],enhanced TPCK-induced accumulation of LC3-II
CC/C(=C(\c1ccccc1)c1ccc(OCCN(C)C)cc1)c1ccccc1 [tamoxifen],cell death by trypan blue staining,[1],induced cell death
same,AAT level as compared to actin,[5],AAT level decreased
same,competition with TRFCK on binding to AAT,[6],not able to compete with TRFCK on binding to AAT
same,AAT level as compared to actin,[7],AAT level decreased
AAT: plasma-derived protein of the serine proteinase inhibitor family; recombinant AAT added to cells,"cell death induced by TPCK and tamoxifen, determined by trypan blue staining","[1]; AAT added prior to induction by TPCK (50 μM, 24 h) or tamoxifen (5 μM, 72 h)",reduction
same,trypsin activity,[8],inhibits trypsin activity
same,"autophagy induced by TPCK and tamoxifen, assessed by MDC staining","[2]; MCF-7 cells, AAT added prior to induction by TPCK (50 μM, 24 h) or tamoxifen (5 μM, 72 h)",reduction in autophagy
N-tosyl-L-phenylalanine chloromethyl ketone [TPCK],cell death by trypan blue staining,[1],induced cell death
same,AAT level as compared to actin,[5],AAT level decreased
same,AAT inhibition of trypsin activity,[9],the inhibition by AAT was abolished
same,trypsin activity,[8],did not inhibit the trypsin activity
same,GFP-LC3 label (number of autophagosomes),[10],accumulation of this label
same,AAT level as compared to actin,[7],AAT level decreased
same,LC3-II by western blot,"[3]; TPCK 50 μM, different times",appearance of LC3-II
same,"MDC fluorescence intensity, number and size of MDC-labeled vesicles",[2]; MCF-7 cells treated with TPCK for 24 hours,dose dependent increase in fluorescence intensity
same,"MDC fluorescence intensity, number and size of MDC-labeled vesicles",[11],dose dependent increase in fluorescence intensity
same,LC3-II by western blot,"[4]; TPCK 50 μM, different times",appearance of LC3-II
trypsin,"trypsin activity (cleavage of the substrate BAEE, absorbance at 253 nm)",[12],AAT inhibits trypsin activity
